Five compounds from ChEMBL document CHEMBL4049444, “Topical Intestinal Aminoimidazole Agonists of G-Protein-Coupled Bile Acid Receptor 1 Promote Glucagon Like Peptide-1 Secretion and Improve Glucose Tolerance” (J Med Chem, 2017) can be followed below.

Series [1] in a line: 1-octanol/phosphate buffer solution partition coefficient, log D of the compound at pH 7.4 for 2 hrs by LC-MS/MS method. The format is physicochemical.
The nature of series [2]: Apparent permeability from apical to basolateral side in human Caco2 cells at 10 uM after 1 hr by LC-MS/MS analysis. Type of series: ADME, cell-based. Conditions: Caco-2; call rule not given here. In general terms: Caco-2 cells form a polarised layer with tight junctions and transporters.
A short description of series [3]: Apparent permeability from apical to basolateral side in human Caco2 cells assessed as drug recovery at 10 uM after 1 hr by LC-MS/MS analysis. Type of series: ADME, cell-based. Conditions: Caco-2, read-out: Drug recovery.
The nature of series [4]: Apparent permeability from basolateral to apical side in human Caco2 cells assessed as drug recovery at 10 uM after 1 hr by LC-MS/MS analysis. The format is ADME, cell-based. To be noted: Caco-2, read-out: Drug recovery.
Series [5] can be described thus: Apparent permeability from basolateral to apical side in human Caco2 cells at 10 uM after 1 hr by LC-MS/MS analysis. To be noted: Caco-2. The format is ADME, cell-based.
A short description of another series: in vivo. Conditions: C57BL6/J, mouse, faeces, po, 20 mg/kg.
Series [6] can be described thus: Cmax in C57BL6/J mouse gallbladder at 20 mg/kg, po by LC-MS/MS analysis. Type of series: ADME, organism-based, Gall bladder. Further details: dose 20 mg/kg, route oral.
The nature of series [7]: Cmax in C57BL6/J mouse plasma at 20 mg/kg, po by LC-MS/MS analysis. Further details: dose 20 mg/kg, route oral. The format is ADME, organism-based.
Series [8] is described as follows: Tmax in C57BL6/J mouse at 20 mg/kg, po by LC-MS/MS analysis. The format is ADME, organism-based. To be noted: in vivo.
A short description of series [9]: Half life in C57BL6/J mouse at 20 mg/kg, po by LC-MS/MS analysis. Conditions: in vivo. Type of series: ADME, organism-based.
Series [10] is described as follows: AUC in C57BL6/J mouse at 20 mg/kg, po by LC-MS/MS analysis. Type of series: ADME, organism-based. Conditions: in vivo.
Series [11] can be described thus: Apparent permeability from apical to basolateral side in human Caco2 cells assessed as drug recovery at 5 uM after 1 hr by LC-MS/MS analysis. To be noted: Caco-2, read-out: Drug recovery. The format is ADME, cell-based.
Series [12] in a line: Apparent permeability from basolateral to apical side in human Caco2 cells assessed as drug recovery at 5 uM after 1 hr by LC-MS/MS analysis. Type of series: ADME, cell-based. Conditions: Caco-2, read-out: Drug recovery.
Series [13] can be described thus: Apparent permeability from apical to basolateral side in human Caco2 cells at 5 uM after 1 hr by LC-MS/MS analysis. Type of series: ADME, cell-based. To be noted: Caco-2.
A short description of series [14]: Half life in CD-1 mouse liver microsomes at 1 uM in presence of NADPH by LC-MS/MS analysis. Type of series: ADME, microsome. (In general: Liver microsomes are vesicles of endoplasmic reticulum, rich in cytochrome P450 enzymes.)
The nature of the next series: physchem. To be noted: PBS/MeOH.
Series [15] in a line: Apparent permeability from basolateral to apical side in human Caco2 cells at 5 uM after 1 hr by LC-MS/MS analysis. Type of series: ADME, cell-based. To be noted: Caco-2.
Another series deals with Ileum. Description: Drug uptake in C57BL6 mouse ileum at 20 mg/kg, po after 8 hrs by LC-MS/MS. Type of series: ADME, organism-based. Conditions: in vivo.
A further series has as its system Colon. Description: Drug uptake in C57BL6 mouse colon at 20 mg/kg, po after 8 hrs by LC-MS/MS. The format is ADME, organism-based. To be noted: in vivo.
Series [16] in a line: Cmax in C57BL6/J mouse liver at 20 mg/kg, po by LC-MS/MS analysis. Type of series: ADME, organism-based. Further details: dose 20 mg/kg, route oral.

≈ marks a conversion by molar mass, not a printed value.

In the case of `COc1ccc(N(C)c2cnc(SCc3c(F)cc(OCCC[N+]45CCN(CC4)CC5)cc3F)n2-c2ccc(F)cc2)cc1OC.O=C[O-]`, the logD (commonly the decadic logarithm of the distribution of all forms, ionised or not, between an organic phase and buffer at a given pH) at 2 h in series [1] worked out at 0.9. The Papp A→B (commonly how fast a substance crosses the layer from the apical side) at 1 h, 10 µM in series [2] stood at 0.016 ×10⁻⁶ cm/s. Further, the recovery at 1 h, 10 µM worked out at 69.3% in [3] and 99.6% in series [4]. In addition, in [5], the Papp B→A (as a rule, the apparent permeability from the basolateral to the apical side of a cell layer) at 1 h, 10 µM amounted to 0.22 ×10⁻⁶ cm/s.
`COc1ccc(N(C)c2cnc(SCc3c(F)cc(C#CC[N+](C)(C)C)cc3F)n2-c2ccc(F)cc2)cc1OC.O=C[O-]` registered a dose excreted at 24 h in “in vivo” of 88%. Besides, the logD at 2 h in series [1] worked out at 1. Also, the Cmax (in general, the peak of the concentration-time curve) in series [6] amounted to 9.03 µM; in series [7] it was 100 nM. In addition, in series [8], the Tmax (in general, the time at which the peak concentration occurs) is 15 min. Besides, the half-life – broadly, how long it takes for the measured level to halve – in series [9] worked out at 97 min. Moreover, the results for the recovery at 1 h, 10 µM in series [3] and in series [4] were 69.8% and 93.4%, respectively. The AUC (as a rule, the area under the concentration-time curve, a measure of exposure) in [10] was 48.5 ng·h/mL.
In series [1], `COc1ccc(N(C)c2cnc(SCc3c(F)cccc3F)n2-c2ccc(F)cc2)cc1OC` had a logD at 2 h of 3.5. Further, the recovery at 1 h, 5 µM is 84.4% in series [11] and 106% in series [12]. Further, in series [13], the Papp A→B at 1 h, 5 µM is 5.32 ×10⁻⁶ cm/s. Moreover, the half-life at 1 µM in series [14] was determined as 0.7 min. The amount in solution in the series “physchem” (solubility at 24 h) came to 6.3 µM (≈ 3.06 µg/mL). The Papp B→A at 1 h, 5 µM in series [15] is 5.47 ×10⁻⁶ cm/s.
In “in vivo”, `COc1ccc(N(C)c2cnc(SCc3c(F)cc(OCCCS(=O)(=O)O)cc3F)n2-c2ccc(F)cc2)cc1OC.N` showed a dose excreted at 24 h of 100%. The Drug uptake entry with Ileum and in the series with Colon was “Active” throughout. Further, the logD at 2 h in [1] was determined as 0.8. Also, in series [2], the Papp A→B at 1 h, 10 µM was 0.031 ×10⁻⁶ cm/s. Besides, the Cmax in series [6] worked out at 11 µM; in series [7] it was 102 nM; in series [16], 385 nM. Besides, the Tmax in series [8] is 45 min. The half-life at 1 µM in [14] came out at 1.2 min. For the same compound, in “physchem”, the solubility (usually the dissolved amount per volume that the medium holds) at 24 h is over 200 µM. The half-life in series [9] worked out at 317 min. For the same compound, the recovery at 1 h, 10 µM in series [3] was 80.1%; in [4] it was 102%. The Papp B→A at 1 h, 10 µM in [5] turned out to be 19 ×10⁻⁶ cm/s. Besides, the AUC in series [10] is 96.2 ng·h/mL.
On to `COc1ccc(N(C)c2cnc(SCc3c(F)cc(C#CC[N+](C)(C)C)cc3F)n2-c2ccc(F)cc2)cc1OC.[I-]`, for which the Papp A→B at 1 h, 10 µM in series [2] is 0.08 ×10⁻⁶ cm/s. The Papp B→A at 1 h, 10 µM in series [5] is 0.24 ×10⁻⁶ cm/s.
